Measurements taken from article PMC7199514 (Frontiers in Chemistry, 2020).

Key:
[1] = test system: A549 cells; experiment: MTT antiproliferation assay, A549; details: read-out: IC50 to cell lines, A549, exposed to tested compounds for 48 h
Protocol: (§2) The cancer cell lines HeLa, A549, MCF-7, and A431 were obtained from the Center for Cell Resource of Peking Union Medical College Hospital, except that A549 cisplatin-resistant subline A549/DDP was obtained by incubation of increased concentration of cisplatin in the culture media until the IC50 value toward cisplatin was above three times of that of A549 cells. The cells were maintained in DMEM (Invitrogen, USA) media supplemented with 10% fetal calf serum (HyClone, USA), 1% PS at 310 K with 5% CO2. The IC50 values were determined using 3-(4,5-dimethyl-2-thiazolyl)-2,5-diphenyl-2-H-tetrazolium bromide (MTT) assay. […] Then cells were exposed to each tested compound at eight concentrations for 48 h. The resulting solution was removed and washed for two times using PBS; then 100 μl cell culture medium containing MTT (0.5 mg/ml) was added to the wells and incubated at 310 K for 4 h. Finally, the MTT media was removed and 100 μl DMSO added to each well to dissolve the formazan crystals. The optical density (OD) values were measured using a microplate reader (SpectraMax M5) at the wavelength of 570 nm. […] The IC50 value was calculated in Origin 8.0 using the logistic regression model. All reported values were averages of six independent experiments and expressed as mean ± standard deviation (SD).

[2] = test system: A431 cells; experiment: MTT antiproliferation assay, A431; details: read-out: IC50 to cell lines, A431, exposed to tested compounds for 48 h
Protocol: as §2

[3] = test system: HeLa cells; experiment: MTT antiproliferation assay, HeLa; details: read-out: IC50 to cell lines, HeLa, exposed to tested compounds for 48 h
Protocol: as §2

[4] = test system: MCF-7 cells; experiment: MTT antiproliferation assay, MCF-7; details: read-out: IC50 to cell lines, MCF-7, exposed to tested compounds for 48 h
Protocol: as §2

[5] = test system: A549 cisplatin-resistant subline A549/DDP; experiment: MTT antiproliferation assay, A549/DDP; details: read-out: IC50 to cell lines, A549/DDP, exposed to tested compounds for 48 h
Protocol: as §2

[6] = target: T1, EGFR (kinase domain only) (Homo sapiens, UniProt P00533); experiment: EGFR inhibition by ELISA; assay type: biochemical; details: ELISA in the presence of 200 μM of ATP
T1 construct: mixed with as-prepared EGFR (kinase domain only) solution; purchased Cell Signaling Technology, Inc. (assay kit); 7909
T1 sequence (P00533 712-979 limits assumed): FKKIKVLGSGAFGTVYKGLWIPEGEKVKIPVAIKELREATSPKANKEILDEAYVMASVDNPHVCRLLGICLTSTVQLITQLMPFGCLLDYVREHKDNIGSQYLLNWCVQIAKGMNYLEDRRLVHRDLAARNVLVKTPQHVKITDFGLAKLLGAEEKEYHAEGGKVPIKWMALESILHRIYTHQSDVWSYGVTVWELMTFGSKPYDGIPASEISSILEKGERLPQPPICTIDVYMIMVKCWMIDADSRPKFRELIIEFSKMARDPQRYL
Protocol: Enzyme-linked immunosorbent assay (ELISA) was employed to evaluate the inhibition of compounds against EGFR. The ELISA screening was performed following the instruction provided by the supplier of the assay kits (no. 7909, Cell Signaling Technology, Inc.). An aliquot (10 μl) of the enzyme solution was added to 415 μl dithiothreitol (DTT) kinase buffer, which consists of 1.25 M DTT and 4 × HTScan® tyrosine kinase buffer [240 mM HEPES (pH 7.5), 20 mM MgCl2, 20 mM MnCl2, and 12 μM Na3VO4]. Each tested Pt compound was dissolved in dimethyl sulfoxide (DMSO) to give a 4 mM solution which was then diluted by deionized water prior to use. The ATP/peptide mixture was prepared by addition of 10 μl of 2.5 mM ATP to 125 μl of 6 μM substrate peptide and then diluted with D2O to 250 μl. An aliquot (12.5 μl) of the solution of a tested compound was mixed with as-prepared EGFR (kinase domain only) solution [12.5 μl, in 50% glycerol, containing 50 mM HEPES (pH = 7.6), 150 mM NaCl, 0.1% Triton, and 1 mM DTT, Sigma Chemical Company] and incubated at 298 K for 5 min, followed by addition of 25 μl of ATP/substrate mixture, and then the resulting mixture was incubated at 310 K for 1 h. The phosphorylation reaction was terminated by the addition of 50 μl/well stop buffer (50 mM EDTA, pH = 8). Each well of a microtiter plate was coated with 100 μl of 10 μg/ml streptavidin (Tianjin Biotechnology Co. Ltd., China) in carbonate–bicarbonate buffer and incubated overnight at 277 K and then blocked with 1.5% bovine serum albumin (BSA, Xinjingke Biotechnology Co. Ltd., China) in PBS/T (PBS solution containing 0.05% Tween-20) at 310 K for 2 h, followed by three times of washing with PBS/T prior to use. Then, 25 μL/well of each enzymatic reaction mixture and 75 μL/well of D2O were added to the plate (in triplicate) for incubation at 310 K for 1 h. Following three times of washing with PBS/T, 100 μl of primary antibody (phospho-tyrosine mouse mAb, 1:1,000 in PBS/T with 1.5% BSA) was added to each well, and the plate was incubated at 310 K for another 1 h. The plate was again washed three times with PBS/T, and then 100 μl of the secondary antibody (HRP-labeled goat anti-mouse IgG, from Zhongshan Golden Bridge Biotechnology Co. Ltd., China, diluted 1:1,000 in PBS/T with 1.5% BSA) was added to each well and incubated for 1 h at 310 K, followed by three times of washing with PBS/T. Finally, 100 μl of 3,3′,5,5′-tetramethylbenzidine (TMB, Xinjingke Biotechnology Co. Ltd., China) substrate was added to each well, and the plate was incubated at 310 K for 15 min, and then the reaction was stopped by addition of 100 μl of 2 M H2SO4 to each well, and the plate was read on the ELISA plate reader (SpectraMax M5 Molecular Devices Corporation) at 450 nm to determine the OD values. […]

[7] = test system: calf thymus DNA (ct-DNA); experiment: Competitive displacement of EB from ct-DNA by fluorescence titration (intercalation); assay type: binding; details: Tris-HCl pH 7.4, 310 K, λex = 500 nm
Protocol: (§1) Complexes 2 and 4 were dissolved in DMSO to yield a panel of 0.25, 0.5, 1.0, 1.5, 2.0, 3.0, 4.0, and 5.0 mM solutions. The calf thymus DNA (ct-DNA) was dissolved in Tris-HCl buffer (pH = 7.4) to give a […] solution. Ethidium bromide (EB) (10 mM, 2 μl) or Hoechst 33342 (4 mM, 5 μl) and ct-DNA ([…], 978 or 975 μl) was incubated at 310 K for 0.5 h. Then the DMSO solution of complexes (20 μl) was added to the resulting solution and kept incubated. After 2 h, each reaction mixture was measured on an F-4500 fluorescence spectrophotometer (HITACHI) with excitation wavelength at 500 nm and emission spectra from 520 to 700 nm for EB mixed solution and excitation wavelength at 370 nm and emission spectra from 400 to 650 nm for Hoechst 33342 mixed solution. A modified Stern–Volmer plot (Sarwar et al., [2015]) was employed to evaluate the affinity of complexes toward DNA.

[8] = test system: calf thymus DNA (ct-DNA); experiment: Competitive displacement of Hoechst 33342 from ct-DNA by fluorescence titration (minor groove binding); details: for affinity in minor groove binding relative to intercalation with DNA: Ksv Hoechst vs Ksv EB; for Ksv (Stern–Volmer quenching constant), replacing Hoechst from ct-DNA: Tris-HCl pH 7.4, 310 K, λex = 370 nm
Protocol: as §1

Row | IC50 [1] | IC50 [2] | IC50 [3] | IC50 [4] | IC50 [5] | IC50 [6] | Compound | Ksv (Stern–Volmer quenching constant), replacing EB from ct-DNA [7] | affinity in minor groove binding relative to intercalation with DNA [8] | Ksv (Stern–Volmer quenching constant), replacing Hoechst from ct-DNA [8]
1 | 12.2 ± 2.2 µM | 7.4 ± 0.4 µM | 13.4 ± 1.3 µM | 24.8 ± 1.1 µM | 32 ± 1.6 µM | 0.0109 ± 0.003 µM | COc1cc2ncnc(Nc3ccc(F)c(Cl)c3)c2cc1OCCn1cc[n+]([Pt-2]23[n+]4ccccc4-c4cc(-c5ccc(Br)cc5)cc([n+]42)-c2cccc[n+]23)c1.F[P-](F)(F)(F)(F)F.F[P-](F)(F)(F)(F)F [Complex 3] |  |  | 
2 | 6.5 ± 2.5 µM | 1.4 ± 0.4 µM | 19.4 ± 5.6 µM | 27.7 ± 2.2 µM | 13.5 ± 1.8 µM | 0.007 ± 0.003 µM | COc1cc2ncnc(Nc3ccc(F)c(Cl)c3)c2cc1OCCCn1cc[n+]([Pt-2]23[n+]4ccccc4-c4cc(-c5ccc(C)cc5)cc([n+]42)-c2cccc[n+]23)c1.F[P-](F)(F)(F)(F)F.F[P-](F)(F)(F)(F)F [Complex 2] | 25900 M⁻¹ | ~ 10 times | 313000 M⁻¹
3 | 13.2 ± 1.8 µM | 7.7 ± 1.8 µM | 29.8 ± 5 µM | 20.3 ± 2.7 µM | 28.9 ± 1.7 µM | 0.0092 ± 0.0006 µM | COc1cc2ncnc(Nc3ccc(F)c(Cl)c3)c2cc1OCCn1cc[n+]([Pt-2]23[n+]4ccccc4-c4cc(-c5ccc(C)cc5)cc([n+]42)-c2cccc[n+]23)c1.F[P-](F)(F)(F)(F)F.F[P-](F)(F)(F)(F)F [Complex 1] |  |  | 
4 | 11.6 ± 1.1 µM | 7.9 ± 3.2 µM | 39.4 ± 0.1 µM | 19.9 ± 2.7 µM | 26.6 ± 3 µM | 0.0096 ± 0.0025 µM | COc1cc2ncnc(Nc3ccc(F)c(Cl)c3)c2cc1OCCCn1cc[n+]([Pt-2]23[n+]4ccccc4-c4cc(-c5ccc(Br)cc5)cc([n+]42)-c2cccc[n+]23)c1.F[P-](F)(F)(F)(F)F.F[P-](F)(F)(F)(F)F [Complex 4] | 18900 M⁻¹ | ~ 10 times | 311000 M⁻¹

Row | Compound | IC50 [1] | IC50 [2] | IC50 [3] | IC50 [4] | IC50 [5] | IC50 [6] | Ksv (Stern–Volmer quenching constant), replacing EB from ct-DNA [7] | affinity in minor groove binding relative to intercalation with DNA [8] | Ksv (Stern–Volmer quenching constant), replacing Hoechst from ct-DNA [8]
5 | N.N.[Cl][Pt][Cl] [Cisplatin, reference compound] | 10.1 ± 1.6 µM | 11.1 ± 0.4 µM | 12.9 ± 0.6 µM | 15.6 ± 0.8 µM | 30.9 ± 1.1 µM |  |  |  | 
